Activity calls are given as the source filed them. The calls are words filed in the database; no cut-off is given here.
How the values were obtained:
[1] = Toxicity in immunodeficient NCG mouse xenografted with human CRMM-1 cells assessed as change in serum ALT level at 10 to 20 mg/kg, ip for 28 days administered five times per week; assay type: organism-based; settings: in vivo, 672 h, dose 10-20 mg/kg, time 28 day
[2] = tested on: CRMM-1; test: Antitumor activity against human CRMM-1 cells xenografted in immunodeficient NCG mouse assessed as mean tumor volume at 20 mg/kg, ip for 28 days administered five times per week (reference value: 540 mm3); assay type: functional; settings: time 28 day
[3] = Toxicity in immunodeficient NCG mouse xenografted with human CRMM-1 cells assessed as body weight loss at 10 to 20 mg/kg, ip for 28 days administered five times per week; assay type: organism-based; settings: in vivo, 672 h, dose 10-20 mg/kg, time 28 day
[4] = tested on: CRMM-1; test: Antitumor activity against human CRMM-1 cells xenografted in immunodeficient NCG mouse assessed as tumor growth suppression at 10 mg/kg, ip for 28 days administered five times per week relative to control; assay type: functional; settings: time 28 day
[5] = Toxicity in immunodeficient NCG mouse xenografted with human CRMM-1 cells assessed as pathomorphological change in kidney at 10 to 20 mg/kg, ip for 28 days administered five times per week by H and E staining based analysis; assay type: organism-based; settings: in vivo, 672 h, dose 10-20 mg/kg, time 28 day
[6] = Toxicity in immunodeficient NCG mouse xenografted with human CRMM-1 cells assessed as change in serum AST level at 10 to 20 mg/kg, ip for 28 days administered five times per week; assay type: organism-based; settings: in vivo, 672 h, dose 10-20 mg/kg, time 28 day
[7] = tested on: CRMM-1; test: Antitumor activity against human CRMM-1 cells xenografted in immunodeficient NCG mouse assessed as tumor growth suppression at 20 mg/kg, ip for 28 days administered five times per week relative to control; assay type: functional; settings: time 28 day
[8] = tested on: CRMM-1; test: Antitumor activity against human CRMM-1 cells xenografted in immunodeficient NCG mouse assessed as mean tumor volume at 10 mg/kg, ip for 28 days administered five times per week (reference value: 540 mm3); assay type: functional; settings: time 28 day
[9] = Toxicity in immunodeficient NCG mouse xenografted with human CRMM-1 cells assessed as pathomorphological change in liver at 10 to 20 mg/kg, ip for 28 days administered five times per week by H and E staining based analysis; assay type: organism-based; settings: in vivo, 672 h, dose 10-20 mg/kg, time 28 day
[10] = Toxicity in immunodeficient NCG mouse xenografted with human CRMM-1 cells assessed as change in serum urea level at 10 to 20 mg/kg, ip for 28 days administered five times per week; assay type: organism-based; settings: in vivo, 672 h, dose 10-20 mg/kg, time 28 day
[11] = Toxicity in immunodeficient NCG mouse xenografted with human CRMM-1 cells assessed as change in serum CREA level at 10 to 20 mg/kg, ip for 28 days administered five times per week; assay type: organism-based; settings: in vivo, 672 h, dose 10-20 mg/kg, time 28 day
[12] = tested on: CRMM-2; test: Antiproliferative activity against human CRMM-2 cells assessed as cell growth inhibition incubated for 72 hrs by CCK8 assay; assay type: functional, cell-based; settings: CRMM-2, 72 h
[13] = tested on: CRMM-1; test: Inhibition of cell migration in human CRMM-1 cells assessed as migration rate at 0.3 uM measured after 72 hrs by wound healing assay (reference value: 70 %); assay type: functional; parameters: scale not given: the % may be the effect or the level left
[14] = Antiproliferative activity against human PIG1 cells assessed as cell growth inhibition incubated for 72 hrs by CCK8 assay; assay type: toxicity, cell-based
[15] = Inhibition of homologous recombination in human CRMM-1 cells at 10 uM incubated for 12 hrs by real-time PCR analysis relative to control; assay type: functional
[16] = molecular target: T1, Double-strand break repair protein MRE11 (Homo sapiens, UniProt P49959); test: Binding affinity to his-tagged recombinant human MRE11 assessed as dissociation constant by MST assay
T1 sequence (P49959 whole entry): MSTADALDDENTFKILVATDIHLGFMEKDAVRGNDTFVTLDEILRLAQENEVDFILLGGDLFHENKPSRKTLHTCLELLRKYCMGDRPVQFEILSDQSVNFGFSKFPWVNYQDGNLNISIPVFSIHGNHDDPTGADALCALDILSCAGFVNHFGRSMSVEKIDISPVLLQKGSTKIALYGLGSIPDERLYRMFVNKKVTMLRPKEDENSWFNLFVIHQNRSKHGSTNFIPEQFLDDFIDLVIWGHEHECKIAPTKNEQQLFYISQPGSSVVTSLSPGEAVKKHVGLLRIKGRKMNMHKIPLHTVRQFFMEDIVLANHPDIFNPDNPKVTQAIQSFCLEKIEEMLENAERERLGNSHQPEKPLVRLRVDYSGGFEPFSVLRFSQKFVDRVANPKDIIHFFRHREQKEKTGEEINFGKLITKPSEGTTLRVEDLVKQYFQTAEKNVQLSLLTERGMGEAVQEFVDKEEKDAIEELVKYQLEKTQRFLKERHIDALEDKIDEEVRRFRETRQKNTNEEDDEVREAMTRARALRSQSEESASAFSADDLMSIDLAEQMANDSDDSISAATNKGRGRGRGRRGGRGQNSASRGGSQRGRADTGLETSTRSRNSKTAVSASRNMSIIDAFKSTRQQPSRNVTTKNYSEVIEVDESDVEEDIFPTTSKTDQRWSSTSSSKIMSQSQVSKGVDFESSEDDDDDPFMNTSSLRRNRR

[17] = tested on: CRMM-1; test: Induction of apoptosis in human CRMM-1 cells at 3 uM measured after 48 hrs by DAPI/Annexin-V-PE staining based flow cytometry relative to control; assay type: functional
[18] = Antiproliferative activity against human CM2005.1 cells assessed as cell growth inhibition incubated for 72 hrs by CCK8 assay; assay type: functional, cell-based; settings: CM2005.1, 72 h
[19] = Antiproliferative activity against human CM-AS16 cells assessed as cell growth inhibition incubated for 72 hrs by CCK8 assay; assay type: functional, cell-based; settings: CM-AS16, 72 h
[20] = tested on: CRMM-1; test: Antiproliferative activity against human CRMM-1 cells assessed as cell growth inhibition incubated for 72 hrs by CCK8 assay; assay type: functional, cell-based; settings: CRMM-1, 72 h
[21] = Antiproliferative activity against human HL7702 cells assessed as cell growth inhibition incubated for 72 hrs by CCK8 assay; assay type: toxicity, cell-based; settings: HL7702 (L02) cells
[22] = tested on: CRMM-1; test: Inhibition of homologous recombination in human CRMM-1 cells at 10 uM incubated for 12 hrs by real-time PCR analysis; assay type: functional, cell-based

SMILES	IC50 [12] [µM]	IC50 at 72 h [14] [µM]	IC50 [18] [µM]	IC50 [19] [µM]	IC50 [20] [µM]	IC50 at 72 h [21] [µM]	inhibition [22]	other results
Cl.Cl.O=C(CCCc1ccccc1)c1c(OCCCN2CCNCC2)ccc2ccccc12								Activity [1]: Non-Toxic; Activity [2]: 340 mm3; Activity [3]: Non-Toxic; Activity [4]: 21%; Activity [5]: Non-Toxic; Activity [6]: Non-Toxic; Activity [7]: 33%; Activity [8]: 390 mm3; Activity [9]: Non-Toxic; Activity [10]: Non-Toxic; Activity [11]: Non-Toxic
O=C(CCCc1ccccc1)c1c(OCCCN2CCNCC2)ccc2ccccc12	0.7	32.9	1	2.9	1.3	25.6		Activity [13]: 45%; inhibition at 10 µM [15]: 89.5%; Kd [16]: 4.3 µM; Activity [17]: 80%
CCCNCCCOc1cc2c(cc1C(=O)CCCc1ccccc1)OCCO2	8.8	15.4	11.6	4.4	5.5	27.7	inactive	
CCCCCNCCCOc1ccccc1C(=O)CCCc1ccccc1	1.3	1.9	3.8	5.5	2.3	2.4	inactive	
